Laboratory results as given in ChEMBL document CHEMBL1158714, “Communiols E-H: new polyketide metabolites from the coprophilous fungus Podospora communis” (J Nat Prod, 2005).
Calls of active or inactive are those of the source.

Legend:
Format in all cases: functional, organism-based
Candida albicans = test: Antimicrobial activity against Candida albicans ATCC 90029 at 200 ug/disk
Staphylococcus aureus = test: Antimicrobial activity against Staphylococcus aureus ATCC 29213 at 200 ug/disk
Bacillus subtilis = test: Antimicrobial activity against Bacillus subtilis ATCC 6051 at 200 ug/disk

Measured: Activity

CC[C@H](O)[C@@H]1C[C@H]2CC=C(CO)[C@H]2O1
inactive: all assays above

CC[C@H](O)[C@@H]1C[C@@H](C/C=C/C=O)C(=O)O1
inactive: all assays above

CC[C@H](O)[C@@H]1C[C@H]2CC[C@H](CO)[C@H]2O1
inactive: all assays above

CC[C@@H]1O[C@H]1C[C@H]1CC=C(CO)[C@H]1O
inactive: all assays above
